Measurements published in PubChem BioAssay (NCI).
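48-hour exposure; five concentrations; linearly interpolated endpoints. Abbreviation: GI50, concentration required for 50% inhibition of growth. TGI is the concentration that stops growth completely.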

Columns and labels:
Assay in all cases: DTP human tumour cell line panel, 48 h
M14 melanoma = system: M14 melanoma
OVCAR-4 ovarian = system: OVCAR-4 ovarian
UACC-62 melanoma = system: UACC-62 melanoma
RXF 393 renal = system: RXF 393 renal
RPMI-8226 leukemia = system: RPMI-8226 leukemia
SN12C renal = system: SN12C renal
MCF7 breast = system: MCF7 breast
HS 578T breast = system: HS 578T breast
HCT-116 colon = system: HCT-116 colon
MDA-MB-231 breast = system: MDA-MB-231 breast

Structure (SMILES) | TGI (M14 melanoma) [µM] | TGI (OVCAR-4 ovarian) [µM] | TGI (UACC-62 melanoma) [µM] | TGI (RXF 393 renal) [µM] | TGI (RPMI-8226 leukemia) [µM] | TGI (SN12C renal) [µM] | GI50 (MCF7 breast) [µM] | TGI (MCF7 breast) [µM] | GI50 (HS 578T breast) [µM] | TGI (HS 578T breast) [µM] | GI50 (M14 melanoma) [µM] | GI50 (OVCAR-4 ovarian) [µM] | GI50 (HCT-116 colon) [µM] | TGI (HCT-116 colon) [µM] | GI50 (MDA-MB-231 breast) [µM] | TGI (MDA-MB-231 breast) [µM] | GI50 (RXF 393 renal) [µM] | GI50 (RPMI-8226 leukemia) [µM] | GI50 (SN12C renal) [µM] | GI50 (UACC-62 melanoma) [µM]
N#CC1=C(c2ccccc2)OC2(N)OC(c3ccccc3)=C(C#N)C12C#N (stereo not drawn) | > 100 | > 100 | > 100 | > 100 | > 100 | > 100 | – | – | – | – | – | – | – | – | – | – | – | – | – | –
O=C(c1ccc(Nc2nccc(NCCCCNc3ccnc4cc(Cl)ccc34)n2)cc1)N1CCCCC1 | 3.43 | 7.52 | – | 2.82 | 4.44 | 9.29 | 1.83 | 7.64 | 1.8 | 4.62 | 1.71 | 1.95 | 1.01 | 2.42 | 1.86 | 4.97 | 1.33 | 0.999 | 2.38 | –
O=C(OCc1ccccc1)n1cccc1 | > 100 | > 100 | > 100 | > 100 | > 100 | > 100 | – | – | – | – | – | – | – | > 100 | – | – | – | – | – | –
CC1(C)CC[C@]2(CO)CC[C@]3(C)C(=CC[C@@H]4[C@@]5(C)CCNCC(C)(C)[C@@H]5CC[C@]43C)[C@@H]2C1 | 4.14 | 24 | 8.14 | 4.83 | – | 16.9 | 3.07 | 13.3 | 4.88 | 22.1 | 2.05 | 7.66 | 3.13 | 12.4 | 3.49 | 11.6 | 1.95 | – | 4.08 | 2.77
CC(=N/NC(N)=S)/C(C)=N/NC(N)=S | > 100 | – | > 100 | > 100 | > 100 | > 100 | – | > 100 | – | > 100 | – | – | – | > 100 | – | > 100 | – | – | – | –
CCOC(=O)CCn1cnc(N)n1 | > 100 | > 100 | > 100 | > 100 | > 100 | > 100 | – | – | – | – | – | – | – | > 100 | – | – | – | – | – | –
O=C(Nc1cc2cc([N+](=O)[O-])ccc2oc1=O)c1cccs1 | > 100 | > 100 | – | 34.4 | > 100 | > 100 | – | 85.2 | – | > 100 | – | – | – | > 100 | – | > 100 | – | – | – | –
Cc1ccc2c(c1)C(O)(c1ccccc1)CCS2 (stereo not drawn) | 66.9 | > 100 | 52.7 | > 100 | – | > 100 | – | > 100 | – | > 100 | – | – | – | 42.5 | – | 39.8 | – | – | – | –
Cn1cc(-c2nc(-c3cn(C)c4ncccc34)cs2)c2ccccc21 | 20.4 | – | > 100 | 4.09 | > 100 | > 100 | 0.372 | 17.5 | 4.14 | > 100 | 0.955 | – | 0.802 | 18.4 | 3.16 | 21.8 | 1.53 | 3.72 | 4.76 | 1.35
N#CC(C#N)=C1CCC2C(=C(C#N)C#N)CCC12 (stereo not drawn) | > 100 | > 100 | > 100 | > 100 | > 100 | > 100 | – | – | – | – | – | – | – | > 100 | – | – | – | – | – | –
O=C(O)c1[nH]c2c([N+](=O)[O-])cc([N+](=O)[O-])cc2c1C(=O)O | > 100 | > 100 | > 100 | > 100 | – | > 100 | – | > 100 | – | > 100 | – | – | – | > 100 | – | > 100 | – | – | – | –
Cc1cn2c(/C=C3\C(=O)N(C)c4ccc(Cl)cc43)c(C)nc2s1 | 32.1 | 91 | > 100 | – | 9.4 | > 100 | 7.01 | 55.5 | 8.28 | > 100 | 3.3 | 6.18 | 2.55 | 14.6 | 4.5 | 23.5 | – | 2.84 | 5.24 | 3.7
Cc1ccc(NC(=O)CCC(=O)C2Cc3ccccc3C2=O)cc1C (stereo not drawn) | > 100 | > 100 | > 100 | > 100 | > 100 | > 100 | – | – | – | – | – | – | – | > 100 | – | – | – | – | – | –
CC(C)(C)OC1=C(OC(C)(C)C)C(O)(c2ccc(Cl)cc2)C1=O (stereo not drawn) | > 100 | > 100 | > 100 | > 100 | > 100 | > 100 | – | – | – | – | – | – | – | – | – | – | – | – | – | –
CCN(CC)CCCC(C)Nc1ccnc(/C=C/c2ccc(Cl)cc2)c1 (stereo not drawn) | 2.74 | – | 3.69 | 2.92 | 5.74 | 10.9 | – | 4.84 | – | 5.81 | – | – | – | 3.22 | – | 3.19 | 1.44 | – | – | –
CN(C)CCNC(=O)c1cccc2c1nc(-c1ccncc1)c1ccccc12 | 16.8 | 15.6 | 6.44 | 7.55 | – | 14.8 | – | – | – | – | – | – | – | 9.23 | – | – | – | – | – | –
CC(=O)c1ccc(Oc2c3ccccc3nc3occc23)cc1 | > 100 | > 100 | 7.95 | 56.7 | > 100 | – | 4.08 | > 100 | 12.4 | 75.5 | 6.81 | 46.9 | 7.35 | > 100 | – | – | 6.26 | 4.63 | – | 2.11
CC(=O)[CH-]C(=O)c1ccccc1.CC(=O)[CH-]C(=O)c1ccccc1.CC(=O)[CH-]C(=O)c1ccccc1.[Br-].[Zr+4] | > 100 | > 100 | > 100 | > 100 | > 100 | > 100 | – | – | – | – | 45 | 82.1 | – | – | – | – | > 100 | 72.5 | 57.1 | > 100
C=CCC1C(=O)CC2(C)C(CC=C)C(=O)CC12C (stereo not drawn) | > 100 | > 100 | > 100 | – | > 100 | > 100 | – | – | – | – | – | – | – | > 100 | – | – | – | – | – | –
Cc1ccc(/C(=C/C=C(C#N)C#N)Sc2nc3ccccc3s2)cc1 | – | 87.6 | 6.22 | 13.8 | – | 4.55 | 4.3 | 32.7 | 9.86 | 56.1 | – | 6.68 | 2.47 | 6.3 | 2.18 | 5.56 | 3.78 | – | 1.98 | 2.6
COc1ccc(NC(=O)c2cccc(C3CCc4c(cc(OC)c(OC)c4OC)O3)c2)cc1 (stereo not drawn) | > 100 | > 100 | > 100 | – | 7.93 | > 100 | 3.11 | > 100 | 2.69 | > 100 | 2.6 | 3.14 | 3.65 | > 100 | 4.13 | > 100 | – | 1.36 | 3.7 | 2.05
CC[P+]1(c2ccccc2)CCCCC1 | > 100 | > 100 | > 100 | > 100 | > 100 | > 100 | – | – | – | – | – | – | – | > 100 | – | – | – | – | – | –
CCOP(=O)(OCC)C(NC(c1ccccc1)c1ccccc1)c1ccc(C(C)C)cc1 (stereo not drawn) | 4.99 | 64.8 | 22.9 | – | 9.99 | 16.8 | 3.06 | 11.4 | – | – | 2.13 | 2.57 | 3.08 | 11.3 | 6.12 | 20.8 | – | 2.65 | 4.65 | 10.4
CCOC(=O)CCSC1=CC(=O)c2nc3ccccc3c3ccnc1c23 | 30.1 | 31.7 | 31.4 | – | > 100 | 31.8 | 13.3 | 38.3 | 32.8 | > 100 | 11.3 | 15.2 | 17.1 | 76.6 | 16.7 | 41.6 | – | 9.55 | 15.7 | 15.8
O=C1CCc2ccc(O)c(c2)Oc2ccc(cc2)[C@@H]2O[C@@H]2CO1 | > 100 | > 100 | > 100 | – | > 100 | > 100 | – | – | – | – | – | – | – | > 100 | – | – | – | – | – | –
CCc1cccc(NC(=O)c2cc(/C=C/c3ccccc3)[nH]c(=S)n2)c1 | > 100 | > 100 | > 100 | > 100 | > 100 | > 100 | – | – | – | – | – | – | – | > 100 | – | – | – | – | – | –
CSc1cc(C(C)(C)C)ccc1C(O)c1ccc(C(C)(C)C)cc1SC | 26.9 | 22.9 | 33.9 | 24.9 | – | 25.8 | – | – | – | – | – | – | – | 17.8 | – | – | – | – | – | –
Oc1ccc(/C=N/NC(=S)Nc2cccnc2)nc1 | > 33.3 | > 100 | 29.3 | > 61.2 | 76.4 | > 57 | – | > 39 | – | – | – | – | – | > 100 | – | > 31.6 | – | – | – | –
CCc1ccccc1NC(=O)C(=O)C(C#N)c1c(Cl)cccc1Cl (stereo not drawn) | > 100 | – | > 100 | – | > 100 | > 100 | – | – | – | – | – | – | – | > 100 | – | – | – | – | – | –
O=C(O)CCSC(=O)Nc1ccccc1 | > 100 | > 100 | > 100 | > 100 | > 100 | > 100 | – | – | – | – | – | – | – | > 100 | – | – | – | – | – | –
